≈ marks a conversion by molar mass, not a printed value.
Experiments:
MV4-11 cells = assay: MV4-11 cell proliferation; type: cell-based
FLT3-ITD phosphorylation = assay: Western blot of FLT3 signaling in MOLM13^FLT3-ITD cells; type: cell-based; conditions: 1 h, read-out: FLT3 IC50 estimated from loss of FLT3-ITD phosphorylation
Solubility = type: physicochemical; conditions: buffer, pH 7.4, aqueous buffer, kinetic from dmso stock
Plasma stability [1] = type: in vitro ADME; conditions: mouse
Plasma stability [2] = type: in vitro ADME; conditions: rat
Plasma stability [3] = type: in vitro ADME; conditions: human
PBS stability = type: physicochemical
Simulated gastric fluid = type: physicochemical
CLK1 = CLK1 (Homo sapiens, UniProt P49759); assay: Kd determination; type: binding
CLK4 = CLK4 (Homo sapiens, UniProt Q9HAZ1); assay: Kd determination; type: binding
CSF1R = CSF1R (Homo sapiens, UniProt P07333); assay: Kd determination; type: binding
EPHB6 = EPHB6 (Homo sapiens, UniProt O15197); assay: Kd determination; type: binding
[4] = biological target: JAK1 (JH2 domain-pseudokinase) (Homo sapiens, UniProt P23458); assay: Kd determination; type: binding
[5] = biological target: JAK2 (JH1 domain-catalytic) (Homo sapiens, UniProt O60674); assay: Kd determination; type: binding
NEK10 = NEK10 (Homo sapiens, UniProt Q6ZWH5); assay: Kd determination; type: binding
PDGFRB = PDGFRB (Homo sapiens, UniProt P09619); assay: Kd determination; type: binding
PIK4CB = PIK4CB (Homo sapiens, UniProt Q9UBF8); assay: Kd determination; type: binding
PIP5K1C = PIP5K1C (Homo sapiens, UniProt O60331); assay: Kd determination; type: binding
[6] = biological target: TYK2 (JH1 domain-catalytic) (Homo sapiens, UniProt P29597); assay: Kd determination; type: binding
[7] = Liver microsomal stability; conditions: female, CD-1, mouse, liver microsomes, pH 7.4
[8] = Liver microsomal stability; conditions: dog, liver microsomes, pH 7.4
[9] = Liver microsomal stability; conditions: both, human, liver microsomes, pH 7.4
[10] = biological target: T1, recombinant human FLT3 (571–993) (Homo sapiens, UniProt P36888); assay: biochemical; type: biochemical
T1 sequence (P36888 571-993): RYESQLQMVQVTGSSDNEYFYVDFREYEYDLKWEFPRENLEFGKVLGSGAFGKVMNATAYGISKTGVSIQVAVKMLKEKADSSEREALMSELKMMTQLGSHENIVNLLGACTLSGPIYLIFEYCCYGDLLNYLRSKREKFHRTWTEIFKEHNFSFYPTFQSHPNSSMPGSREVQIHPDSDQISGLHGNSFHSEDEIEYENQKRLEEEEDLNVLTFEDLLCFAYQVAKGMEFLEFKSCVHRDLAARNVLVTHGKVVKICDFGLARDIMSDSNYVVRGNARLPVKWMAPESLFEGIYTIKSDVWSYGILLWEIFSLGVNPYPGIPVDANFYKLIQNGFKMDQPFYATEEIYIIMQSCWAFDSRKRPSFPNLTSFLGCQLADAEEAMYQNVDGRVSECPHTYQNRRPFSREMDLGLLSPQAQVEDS

[11] = biological target: ABL1 (H396P)-phosphorylated (Homo sapiens, UniProt P00519, H396P); assay: Kd determination; type: binding
AURKC = AURKC (Homo sapiens, UniProt Q9UQB9); assay: Kd determination; type: binding
AXL = AXL (Homo sapiens, UniProt P30530); assay: Kd determination; type: binding
BLK = BLK (Homo sapiens, UniProt P51451); assay: Kd determination; type: binding
CSF1R-autoinhibited = CSF1R-autoinhibited (Homo sapiens, UniProt P07333); assay: Kd determination; type: binding
HCK = HCK (Homo sapiens, UniProt P08631); assay: Kd determination; type: binding
KIT = KIT (Homo sapiens, UniProt P10721); assay: Kd determination; type: binding
LCK = LCK (Homo sapiens, UniProt P06239); assay: Kd determination; type: binding
MERTK = MERTK (Homo sapiens, UniProt Q12866); assay: Kd determination; type: binding
MINK = MINK (Homo sapiens, UniProt Q8N4C8); assay: Kd determination; type: binding
RET (M918T) = RET (M918T) (Homo sapiens, UniProt P07949, M918T); assay: Kd determination; type: binding
RET (V804M) = RET (V804M) (Homo sapiens, UniProt P07949, V804M); assay: Kd determination; type: binding
SRC = SRC (Homo sapiens, UniProt P12931); assay: Kd determination; type: binding
TRKA = TRKA (Homo sapiens, UniProt P04629); assay: Kd determination; type: binding
TYRO3 = TYRO3 (Homo sapiens, UniProt Q06418); assay: Kd determination; type: binding

Chain of PIK4CB (Q9UBF8 whole entry): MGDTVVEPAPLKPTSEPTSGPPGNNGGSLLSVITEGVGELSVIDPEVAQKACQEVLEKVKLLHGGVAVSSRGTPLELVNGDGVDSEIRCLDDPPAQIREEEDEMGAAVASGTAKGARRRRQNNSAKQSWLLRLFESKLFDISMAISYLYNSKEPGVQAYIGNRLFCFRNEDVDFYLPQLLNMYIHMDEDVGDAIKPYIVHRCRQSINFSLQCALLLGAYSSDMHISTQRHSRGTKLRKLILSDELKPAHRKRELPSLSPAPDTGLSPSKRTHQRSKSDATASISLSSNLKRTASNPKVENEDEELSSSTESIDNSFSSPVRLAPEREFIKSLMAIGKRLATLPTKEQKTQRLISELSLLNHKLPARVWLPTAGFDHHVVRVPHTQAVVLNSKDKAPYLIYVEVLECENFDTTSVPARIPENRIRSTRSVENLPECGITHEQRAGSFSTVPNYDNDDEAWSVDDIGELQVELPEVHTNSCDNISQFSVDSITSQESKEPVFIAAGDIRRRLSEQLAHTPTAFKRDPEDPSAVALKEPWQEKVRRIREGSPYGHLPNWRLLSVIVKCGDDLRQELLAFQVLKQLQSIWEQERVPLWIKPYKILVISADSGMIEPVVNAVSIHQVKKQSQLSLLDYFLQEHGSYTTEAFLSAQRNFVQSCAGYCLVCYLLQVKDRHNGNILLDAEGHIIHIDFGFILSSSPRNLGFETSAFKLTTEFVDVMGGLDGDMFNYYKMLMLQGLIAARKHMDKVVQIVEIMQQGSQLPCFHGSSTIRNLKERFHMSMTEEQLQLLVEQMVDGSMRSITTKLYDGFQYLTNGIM
Chain of NEK10 (Q6ZWH5 whole entry): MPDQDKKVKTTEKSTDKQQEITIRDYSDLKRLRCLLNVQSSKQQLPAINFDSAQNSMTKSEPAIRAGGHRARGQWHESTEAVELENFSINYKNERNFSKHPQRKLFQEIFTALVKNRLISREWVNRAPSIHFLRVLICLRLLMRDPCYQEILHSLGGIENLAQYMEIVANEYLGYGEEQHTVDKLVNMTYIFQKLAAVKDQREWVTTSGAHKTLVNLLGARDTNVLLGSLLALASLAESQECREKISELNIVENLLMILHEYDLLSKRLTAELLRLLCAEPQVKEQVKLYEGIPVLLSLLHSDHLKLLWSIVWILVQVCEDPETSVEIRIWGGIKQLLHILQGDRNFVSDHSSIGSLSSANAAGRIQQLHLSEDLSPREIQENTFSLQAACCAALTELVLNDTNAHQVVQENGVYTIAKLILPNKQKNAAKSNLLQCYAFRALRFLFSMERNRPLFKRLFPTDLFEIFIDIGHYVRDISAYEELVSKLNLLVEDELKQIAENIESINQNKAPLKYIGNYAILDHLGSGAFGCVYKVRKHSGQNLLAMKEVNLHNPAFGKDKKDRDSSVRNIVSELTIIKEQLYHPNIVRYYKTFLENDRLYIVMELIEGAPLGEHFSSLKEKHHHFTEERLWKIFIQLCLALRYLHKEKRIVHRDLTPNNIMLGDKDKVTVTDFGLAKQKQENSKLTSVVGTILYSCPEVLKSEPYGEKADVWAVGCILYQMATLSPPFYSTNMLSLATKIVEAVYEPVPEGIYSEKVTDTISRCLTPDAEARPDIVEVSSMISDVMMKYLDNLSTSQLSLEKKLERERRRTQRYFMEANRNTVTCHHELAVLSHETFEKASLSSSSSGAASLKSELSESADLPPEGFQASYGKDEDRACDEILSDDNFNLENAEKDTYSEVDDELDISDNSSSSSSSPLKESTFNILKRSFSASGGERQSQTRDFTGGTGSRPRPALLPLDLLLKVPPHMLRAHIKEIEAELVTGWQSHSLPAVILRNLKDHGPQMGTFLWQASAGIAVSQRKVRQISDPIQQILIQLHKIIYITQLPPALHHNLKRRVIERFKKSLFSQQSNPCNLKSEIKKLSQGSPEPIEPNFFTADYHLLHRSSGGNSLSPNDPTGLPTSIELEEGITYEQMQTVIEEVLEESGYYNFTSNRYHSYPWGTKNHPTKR
Chain of CLK1 (P49759 whole entry): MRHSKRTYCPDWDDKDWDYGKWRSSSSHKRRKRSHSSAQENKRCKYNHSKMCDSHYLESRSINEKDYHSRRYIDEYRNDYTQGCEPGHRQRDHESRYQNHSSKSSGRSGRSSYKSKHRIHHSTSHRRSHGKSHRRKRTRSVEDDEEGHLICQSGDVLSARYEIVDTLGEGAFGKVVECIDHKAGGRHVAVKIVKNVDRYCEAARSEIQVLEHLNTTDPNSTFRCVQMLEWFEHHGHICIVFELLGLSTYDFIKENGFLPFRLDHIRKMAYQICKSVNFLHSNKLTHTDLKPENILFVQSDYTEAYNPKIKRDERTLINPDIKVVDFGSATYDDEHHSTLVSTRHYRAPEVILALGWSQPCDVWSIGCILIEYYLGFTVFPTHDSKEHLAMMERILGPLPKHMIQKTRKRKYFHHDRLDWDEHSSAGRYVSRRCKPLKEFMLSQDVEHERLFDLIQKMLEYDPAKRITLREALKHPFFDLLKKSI
Chain of PIP5K1C (O60331 whole entry, the tested form may be a part): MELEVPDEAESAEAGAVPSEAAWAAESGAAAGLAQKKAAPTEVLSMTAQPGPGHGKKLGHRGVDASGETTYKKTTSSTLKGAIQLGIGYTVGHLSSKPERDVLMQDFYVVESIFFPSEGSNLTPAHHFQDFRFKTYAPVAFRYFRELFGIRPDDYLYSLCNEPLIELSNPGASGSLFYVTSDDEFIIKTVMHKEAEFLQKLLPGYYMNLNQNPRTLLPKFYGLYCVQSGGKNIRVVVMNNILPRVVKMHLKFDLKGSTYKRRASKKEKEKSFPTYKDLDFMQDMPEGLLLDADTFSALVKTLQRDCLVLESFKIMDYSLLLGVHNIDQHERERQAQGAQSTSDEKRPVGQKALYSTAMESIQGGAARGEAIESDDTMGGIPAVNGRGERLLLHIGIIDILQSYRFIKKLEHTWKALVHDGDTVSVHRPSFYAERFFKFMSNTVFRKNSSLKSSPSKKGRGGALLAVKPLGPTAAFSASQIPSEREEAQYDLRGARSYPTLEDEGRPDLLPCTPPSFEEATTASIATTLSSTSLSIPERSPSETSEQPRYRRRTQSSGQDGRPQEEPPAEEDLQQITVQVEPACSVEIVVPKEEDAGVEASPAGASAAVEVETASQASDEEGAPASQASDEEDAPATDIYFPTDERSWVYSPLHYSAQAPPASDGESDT
Chain of CLK4 (Q9HAZ1 whole entry): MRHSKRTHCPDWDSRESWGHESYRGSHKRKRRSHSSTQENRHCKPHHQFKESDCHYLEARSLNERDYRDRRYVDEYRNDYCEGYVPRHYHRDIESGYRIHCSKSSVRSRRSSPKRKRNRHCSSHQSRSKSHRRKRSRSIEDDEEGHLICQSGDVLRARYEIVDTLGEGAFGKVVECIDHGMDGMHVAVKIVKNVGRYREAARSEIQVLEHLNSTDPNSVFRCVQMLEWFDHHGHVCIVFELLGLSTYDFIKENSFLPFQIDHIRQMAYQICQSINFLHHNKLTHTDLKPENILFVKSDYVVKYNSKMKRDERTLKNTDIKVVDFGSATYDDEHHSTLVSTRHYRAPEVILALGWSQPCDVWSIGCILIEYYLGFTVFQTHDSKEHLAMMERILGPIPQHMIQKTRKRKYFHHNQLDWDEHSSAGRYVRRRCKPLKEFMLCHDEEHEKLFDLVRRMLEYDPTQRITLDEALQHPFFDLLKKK
Chain of PDGFRB (P09619 33-1106): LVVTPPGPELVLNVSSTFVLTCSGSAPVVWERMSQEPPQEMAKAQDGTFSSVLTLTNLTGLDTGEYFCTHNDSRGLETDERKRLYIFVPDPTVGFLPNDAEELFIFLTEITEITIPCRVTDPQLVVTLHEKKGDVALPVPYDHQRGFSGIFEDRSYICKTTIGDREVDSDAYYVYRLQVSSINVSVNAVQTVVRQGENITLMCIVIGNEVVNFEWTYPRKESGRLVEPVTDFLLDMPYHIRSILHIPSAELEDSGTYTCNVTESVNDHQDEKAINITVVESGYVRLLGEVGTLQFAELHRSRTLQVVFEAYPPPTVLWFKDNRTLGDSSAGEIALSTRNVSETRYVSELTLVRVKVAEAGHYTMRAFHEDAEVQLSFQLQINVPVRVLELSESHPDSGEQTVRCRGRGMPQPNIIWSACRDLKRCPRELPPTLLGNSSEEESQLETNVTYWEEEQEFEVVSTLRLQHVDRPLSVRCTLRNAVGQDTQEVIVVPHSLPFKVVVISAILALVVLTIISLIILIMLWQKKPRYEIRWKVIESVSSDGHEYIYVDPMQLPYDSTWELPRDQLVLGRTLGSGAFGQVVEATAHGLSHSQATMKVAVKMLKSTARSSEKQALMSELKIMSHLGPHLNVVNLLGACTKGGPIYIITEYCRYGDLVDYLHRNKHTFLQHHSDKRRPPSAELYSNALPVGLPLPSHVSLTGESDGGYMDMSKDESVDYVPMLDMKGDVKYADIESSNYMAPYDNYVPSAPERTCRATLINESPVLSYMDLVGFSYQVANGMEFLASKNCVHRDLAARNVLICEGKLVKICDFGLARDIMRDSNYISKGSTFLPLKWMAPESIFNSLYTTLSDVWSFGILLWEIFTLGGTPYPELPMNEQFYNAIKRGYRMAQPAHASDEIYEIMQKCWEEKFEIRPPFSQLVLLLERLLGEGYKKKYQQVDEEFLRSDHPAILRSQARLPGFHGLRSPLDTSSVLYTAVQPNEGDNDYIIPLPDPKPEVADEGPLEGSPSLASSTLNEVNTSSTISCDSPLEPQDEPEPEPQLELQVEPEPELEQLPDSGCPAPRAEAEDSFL
Chain of TYK2 (JH1 domain-catalytic) (P29597 897-1176 limits assumed): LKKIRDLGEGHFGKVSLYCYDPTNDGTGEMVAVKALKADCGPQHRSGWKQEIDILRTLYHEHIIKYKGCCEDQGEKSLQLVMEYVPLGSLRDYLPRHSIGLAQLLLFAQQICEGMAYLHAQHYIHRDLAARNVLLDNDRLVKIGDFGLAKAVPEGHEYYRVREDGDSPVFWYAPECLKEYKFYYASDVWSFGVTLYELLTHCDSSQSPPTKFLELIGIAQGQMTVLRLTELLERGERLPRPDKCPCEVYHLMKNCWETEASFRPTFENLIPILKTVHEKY

In the case of `CC(C)Nc1ccnc(Nc2cccc(-c3cccnc3)c2)n1` [Compound 5e, N^4-Isopropyl-N^2-(3-(pyridin-3-yl)phenyl)pyrimidine-2,4-diamine], the “fold improvement in MV4-11 growth inhibition relative to 1” value (MV4-11 cells) is reported as “approximately 10 fold”, the IC50 (FLT3-ITD phosphorylation) is reported as 50 to 100 nM and the solubility at 18 h (Solubility) is reported as 26.4 ± 17 µM (≈ 8.06 µg/mL). For the same compound, the plasma stability (Plasma stability [1]) was over 48 h, the plasma stability (Plasma stability [2]) was over 48 h and the plasma stability (Plasma stability [3]) was over 48 h. For the same compound, the PBS stability (PBS stability; pH = 3.0) was over 48 h, the PBS stability (PBS stability; pH = 5.0) was over 48 h and the PBS stability (PBS stability; pH = 7.4) was over 48 h. The SGF stability (Simulated gastric fluid) was over 48 h, the Kd (CLK1) was 260 nM and the Kd (CLK4) was 1100 nM. The Kd (CSF1R) was 460 nM, the Kd (EPHB6) was 440 nM and the Kd [4] was 28 nM. For the same compound, the Kd [5] was 480 nM, the Kd (NEK10) was 2000 nM and the Kd (PDGFRB) was 28 nM. For the same compound, the Kd (PIK4CB) was 330 nM, the Kd (PIP5K1C) was 1300 nM and the Kd [6] was 740 nM. The CLint scaled at 4 µM [7] was 180 ± 19.4 mL/min/kg, the half-life [7] was 12 to 60 min and the half-life at 4 µM [7] was 18 ± 1.8 min. The CLint scaled at 4 µM [8] was 28.2 ± 1.9 mL/min/kg, the half-life at 4 µM [8] was 72 ± 6 min and the CLint scaled at 4 µM [9] was 10 ± 0.6 mL/min/kg. It also gave a half-life at 4 µM [9] of 126 ± 6 min.
Compound `c1cncc(-c2cccc(Nc3nccc(NC4CCCCC4)n3)c2)c1` [Compound 1, N^4-Cyclohexyl-N^2-(3-(pyridin-3-yl)phenyl)pyrimidine-2,4-diamine] has an IC50 ([10]; FLT3 IC50, 100 μM ATP) of under 6 nM, an IC50 ([10]; FLT3 IC50, 2.5 mM ATP) of 116 nM and a solubility at 18 h (Solubility) of 0.4 ± 0.9 µM (≈ 0.138 µg/mL). For the same compound, the Kd [11] was 2100 nM, the Kd (AURKC) was over 10000 nM and the Kd (AXL) was 2100 nM. The Kd (BLK) was 3900 nM, the Kd (CLK1) was 430 nM and the Kd (CLK4) was 690 nM. The Kd (CSF1R-autoinhibited) was 1500 nM, the Kd (HCK) was 2100 nM and the Kd (KIT) was 1500 nM. The Kd (LCK) was 2900 nM, the Kd (MERTK) was 2800 nM and the Kd (MINK) was 2500 nM. It also gave a Kd (NEK10) of 410 nM, a Kd (PDGFRB) of 120 nM and a Kd (PIK4CB) of 370 nM. For the same compound, the Kd (PIP5K1C) was 610 nM, the Kd (RET (M918T)) was 1200 nM and the Kd (RET (V804M)) was 1400 nM. The Kd (SRC) was 1100 nM, the Kd (TRKA) was 1100 nM and the Kd (TYRO3) was 2700 nM. For the same compound, the CLint scaled at 4 µM [7] was 26.5 ± 1.6 mL/min/kg, the half-life at 4 µM [7] was 15.6 ± 1.8 min and the CLint scaled at 4 µM [8] was 49.4 ± 3.9 mL/min/kg. It also gave a half-life at 4 µM [8] of 42 ± 6 min, a CLint scaled at 4 µM [9] of 26.6 ± 2.2 mL/min/kg and a half-life at 4 µM [9] of 48 ± 6 min.

Source: article PMC5452050 (ACS Omega, 2017)
